Assay results from PubChem BioAssay (NCI).
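96-well plates; 48 h exposure; 5 concentrations. Endpoints by linear interpolation between flanking doses. Not reached: highest tested concentration assigned. TGI is the concentration that stops growth completely.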

What was measured:
Experiment in all cases: inhibition of tumour cell growth, NCI panel, 48 h
[1] = test system: 786-0 renal
[2] = test system: A498 renal
[3] = test system: A549 NSCLC
[4] = test system: ACHN renal
[5] = test system: CAKI-1 renal
[6] = test system: CCRF-CEM leukemia
[7] = test system: COLO 205 colon
[8] = test system: DMS 114 small cell lung
[9] = test system: DMS 273 small cell lung
[10] = test system: EKVX NSCLC
[11] = test system: HCT-116 colon
[12] = test system: HCT-15 colon
[13] = test system: HT29 colon
[14] = test system: IGROV1 ovarian
[15] = test system: K-562 leukemia
[16] = test system: KM20L2 colon
[17] = test system: LXFL 529 NSCLC
[18] = test system: M14 melanoma
[19] = test system: M19-MEL melanoma
[20] = test system: MALME-3M melanoma
[21] = test system: MOLT-4 leukemia
[22] = test system: NCI-H522 lung
[23] = test system: OVCAR-4 ovarian
[24] = test system: OVCAR-5 ovarian
[25] = test system: OVCAR-8 ovarian
[26] = test system: RXF 393 renal
[27] = test system: SF-295 CNS
[28] = test system: SF-539 CNS
[29] = test system: SK-MEL-5 melanoma
[30] = test system: SK-OV-3 ovarian
[31] = test system: SN12C renal
[32] = test system: SNB-75 CNS
[33] = test system: SW-620 colon
[34] = test system: TK-10 renal
[35] = test system: U251 CNS
[36] = test system: UACC-257 melanoma
[37] = test system: UO-31 renal
[38] = test system: XF 498 CNS
[39] = test system: DLD-1 colon
[40] = test system: HCC-2998 colon
[41] = test system: HOP-62 NSCLC
[42] = test system: HOP-92 NSCLC
[43] = test system: KM12 colon
[44] = test system: LOX IMVI melanoma
[45] = test system: NCI-H226 lung
[46] = test system: NCI-H23 lung
[47] = test system: NCI-H460 lung
[48] = test system: OVCAR-3 ovarian
[49] = test system: SF-268 CNS
[50] = test system: SK-MEL-2 melanoma
[51] = test system: SK-MEL-28 melanoma
[52] = test system: SNB-78 CNS
[53] = test system: SR leukemia
[54] = test system: UACC-62 melanoma

CCCCCCCCCCNCCSSCc1ccc(Cl)cc1
TGI [1]: 24.2 µM
TGI [2]: 28.4 µM
TGI [3]: 3.59 µM
TGI [4]: 18.5 µM
TGI [5]: 7.15 µM
TGI [6]: 4.87 µM
TGI [7]: 5.95 µM
TGI [8]: 3.23 µM
TGI [9]: 2.99 µM
TGI [10]: 5.14 µM
TGI [11]: 3.14 µM
TGI [12]: 6.54 µM
TGI [13]: 3.74 µM
TGI [14]: 7.62 µM
TGI [15]: 5.27 µM
TGI [16]: 3.07 µM
TGI [17]: 2.9 µM
TGI [18]: 1.17 µM
TGI [19]: 3.58 µM
TGI [20]: 7.69 µM
TGI [21]: 3.08 µM
TGI [22]: 3.18 µM
TGI [23]: 3.09 µM
TGI [24]: 3.72 µM
TGI [25]: 3.8 µM
TGI [26]: 11.6 µM
TGI [27]: 4.79 µM
TGI [28]: 3.64 µM
TGI [29]: 1.88 µM
TGI [30]: 8.22 µM
TGI [31]: 3.86 µM
TGI [32]: 20.6 µM
TGI [33]: 3.02 µM
TGI [34]: 4.04 µM
TGI [35]: 10.2 µM
TGI [36]: 2.31 µM
TGI [37]: 4.84 µM
TGI [38]: 5.22 µM

COc1ccc(Nc2nc3cc(C(F)(F)F)ccc3nc2-c2ccccc2)cc1OC
TGI [1]: > 100 µM
TGI [2]: > 100 µM
TGI [3]: > 100 µM
TGI [4]: > 100 µM
TGI [5]: 68.8 µM
TGI [6]: > 100 µM
TGI [7]: > 100 µM
TGI [39]: > 100 µM
TGI [8]: 41.4 µM
TGI [9]: 21.8 µM
TGI [10]: 71.2 µM
TGI [40]: > 100 µM
TGI [11]: > 100 µM
TGI [12]: > 100 µM
TGI [41]: 39.3 µM
TGI [42]: 9.1 µM
TGI [13]: > 100 µM
TGI [14]: > 100 µM
TGI [15]: > 100 µM
TGI [43]: > 100 µM
TGI [44]: > 100 µM
TGI [17]: > 100 µM
TGI [18]: > 100 µM
TGI [20]: 85.8 µM
TGI [21]: > 100 µM
TGI [45]: 69.7 µM
TGI [46]: > 100 µM
TGI [47]: > 100 µM
TGI [22]: > 100 µM
TGI [48]: > 100 µM
TGI [23]: > 100 µM
TGI [24]: > 100 µM
TGI [25]: > 100 µM
TGI [26]: 35.9 µM
TGI [49]: > 100 µM
TGI [27]: 53.3 µM
TGI [28]: > 100 µM
TGI [50]: > 100 µM
TGI [51]: 63.8 µM
TGI [29]: > 100 µM
TGI [30]: 66.5 µM
TGI [31]: > 100 µM
TGI [32]: > 100 µM
TGI [52]: 66.7 µM
TGI [53]: > 100 µM
TGI [33]: > 100 µM
TGI [34]: 43 µM
TGI [35]: > 100 µM
TGI [36]: 99.4 µM
TGI [54]: > 100 µM
TGI [37]: > 100 µM
TGI [38]: 11.2 µM
